Experimental data taken from patent US20110212116A1, “IMMUNOGENIC PEPTIDES AND USES THEREOF” (Cancer Research Technology Limited, priority 2008, published 2011).
“Also recorded” adds a separate entry of the source.

Columns and labels:
[1] = system: healthy donor T cells; assay: IFNγ ELISA of healthy donor T cells stimulated with peptide loaded autologous DCs; type: cell-based, human; settings: for IFNγ production from normal donor T cells: modified peptides P11-P16, six normal donors; for IFNγ responses following stimulation with autologous DCs loaded with wild type peptide: in one of three normal donors tested
Method: PBMCs were prepared from healthy donor buffy coats as described above. Monocytes were obtained from newly sourced buffy coats, or cells thawed at 10^6/ml in warm X-VIVO medium, 1% human AB serum and plated in 90 mm TC dishes. Plates were incubated at 37° C. for at least 4 hours and non adherent cells removed by gently washing with media or HBSS or CD14^+ cells were positively selected as described. The remaining T cell enriched cells were cryopreserved for use as effectors in later assays. The CD14^+ fraction/adherent cells were cultured in IL-4 (1000 IU/ml) and GM-CSF (800 U/ml) for 5 days to induce differentiation to a dendritic cell (DC) phenotype. On day 3 fresh IL-4 and GM-CSF were added. On day 5 TNFα (10 ng/ml), IL-6 (1000 U/ml) and IL-1β (10 ng/ml) all from R&D systems UK and PGE2 (1 μg/ml) (from Sigma, UK) were added to plates. On day 6 DCs were harvested from plates and washed with HBSS to remove residual cytokines before use in immunological experiments. Analysis of DC phenotype was carried out by flow cytometry.
IL-2 and IFNγ levels were determined with Duo set ELISA Development System (R&D Systems), according to the manufacturer's instructions. Supernatants were collected at various time points (days 3, 7, 10 and 14) in order to detect peak cytokine levels.
(§1) After 24 hours in maturation cytokines, DCs were incubated with peptide (50 μg/ml) for 4 hours. PBMCs or CD3^+ cells from healthy donors or patients with solid tumours were seeded into a 12-well plate, in X-VIVO 15 at a density of 2×10^6/ml. Peptide pulsed, monocyte derived DCs were washed and prepared at 2×10^5/ml. PBMC cultures received peptide pulsed DCs at a stimulator:effector ratio of […], or in the case of unstimulated controls, medium only. IL-7 was added to cultures at a final concentration of 10 U/ml on day 3. Cultures were restimulated by addition of peptide pulsed DCs on, day 7, and in some cases day 14, together with IL-7 and IL-2 (both at 10 U/ml). 200 μl of culture supernatants were collected at various intervals throughout the culture period and replaced with fresh medium. In the case of AML patient cultures, T2 cells were pulsed with peptide and used as stimulators in the same way as autologous DCs described above. Culture supernatants were analysed for IFNγ content by ELISA. After the 2-3 week culture period, stimulated effector cells were washed and analysed by pentamer staining, intracellular cytokine staining or ELISPOT assays.

[2] = system: healthy donor CD3+ cells; assay: Intracellular IFNγ staining of peptide stimulated CD3+ cultures; type: cell-based, human; settings: after three stimulations, CD4 or CD8 co-staining
Method: For detection of IFNγ, Brefeldin A was added to T cells 12 hours prior to intracellular staining, to a final concentration of […]. Effector cells were washed with PBS and stained with CD8-PE or CD4-PE antibody for 30 minutes at room temperature. Stained cells were then washed twice with HBSS, and resuspended in the residual volume. 100 μl of fixation solution (Caltag Laboratories, UK) was added to each tube and samples incubated for 15 minutes at room temperature. Cells were then washed with cold HBSS, 1% FBS 0.1% sodium azide and resuspended in the residual volume. 100 μl of permeabilisation medium (Caltag Laboratories) and 5 μl of IFNγ-FITC was added to each tube, and incubated for 20 mins at room temperature. Finally, cells were washed and resuspended in 300-500 μl HBSS ready for FACS analysis. All antibodies and isotype controls were purchased from (Becton Dickinson, Oxford, UK) except HLA-A2 (from Serotec).
After 24 hours in maturation cytokines, DCs were incubated with peptide (50 μg/ml) for 4 hours. PBMCs or CD3^+ cells from healthy donors or patients with solid tumours were seeded into a 12-well plate, in X-VIVO 15 at a density of 2×10^6/ml. […] Culture supernatants were analysed for IFNγ content by ELISA. After the 2-3 week culture period, stimulated effector cells were washed and analysed by pentamer staining, intracellular cytokine staining or ELISPOT assays.

[3] = system: healthy donor CD8+ T cells; assay: Pentamer staining, healthy donor CD3+ cells stimulated with peptide pulsed DCs; type: cell-based, human; settings: two of four normal donors, after four stimulations
Method: (§2) Assessment of peptide specific T cells was carried out by staining 10^6 effector cells with 10 μl of PE labeled, HLA-A*0201 pentamers (custom made by Proimmune) for 10 minutes, at room temperature, in the dark. Cells were then washed and co-stained with CD8-FITC for 20 minutes at room temperature. The lymphocyte gate was selected according to FSSCH/SSCH and 50,000 events acquired. Staining with control pentamers was carried out for each sample.
as §1, with “200 μl of culture supernatants were collected at various intervals throughout the culture period and replaced with fresh medium. In the case of AML patient cultures, T2 cells were pulsed with peptide and used as stimulators in the same way as autologous DCs described above.” left out, “assays. […]” for “assays.”

[4] = system: AML patient CD8+ T cells; assay: Pentamer staining, AML patient CD3+ T cells stimulated with peptide loaded T2 cells; type: cell-based, human; settings: for P14 pentamer positive cells of the CD8+ cells: after P14 peptide stimulation; for Pentamer positive cells, frequency of the CD8+ cells: after two rounds of ex vivo stimulation
Method: as §2, §1
(§3) The T2 line was first examined for immune stimulatory molecules by FACS analysis. […] T2 cells were cultured in serum free conditions to reduce the non-human antigens present in the FCS. T2 cells were incubated with peptide for 4 hours, washed and irradiated and seeded in 96 well plates. Purified T cells (Miltenyi) from patients were added and IFNγ secretion or the expansion of CD8^+ epitope specific T cells measured using pentamers.
Prior to each restimulation, cells were resuspended and aliquots taken for pentamer staining.

[5] = system: solid tumour patient CD8+ T cells; assay: Pentamer staining, solid tumour patient CD3+ T cells stimulated with peptide loaded autologous DCs; type: cell-based, human; settings: for Pentamer positive cells, frequency of CD8+ cells: absence of peptide stimulation; for Pentamer positive cells, frequency of the CD8+ population: after peptide stimulation (P15: three rounds)
Method: as §2, §1
There have been no reports of PASD1 expression in primary head and neck, prostate or colon cancer primary cells to date, but the head and neck cancer cell line Hn5^19, the lung cancer line H1299^19 and the colon cancer cell line SW480^24 are PASD1 positive. This raises the possibility that some solid cancer patients may be able to raise a response to the PASD1 peptides. Cells used in these experiments were isolated from leukophoresis samples taken several months after the cessation of treatment. Negatively purified CD3^+ T cells were stimulated with autologous monocyte derived DCs as described previously. Pentamer analysis was carried out after each stimulation.

[6] = system: patient T cells; assay: IFNγ secretion by patient T cells following in vitro peptide stimulation; type: cell-based, human; settings: for Specific IFNγ secretion by ELISpot: colon cancer patient T cells stimulated with peptide
Method: FIG. 4. IFNγ secretion by patient T cells following in vitro stimulations. (A) IFNγ levels in peptide stimulated cultures from AML patients (same as shown in FIGS. 3 B and E) as measured by ELISpot assays. […] Graphs show IFNγ levels at day 10 (y-axis).
as §1, §3

[7] = system: patient CD8+ T cells; assay: pMHC tetramer array with unstimulated patient CD8+ T cells; type: cell-based, human
Method: FIG. 11: pMHC arrays. pMHC molecules were folded into tetramers using either streptavidin alone or AlexaFluor 532 (Molecular Probes) conjugated to streptavidin. Tetramers were spotted onto hydrogel slides using a contact deposition-type printer (Genetix), at a concentration of 0.5 mg/ml in 2% glycerol. Printed arrays were immobilised for 48 hours and stored at 4° C. until use. (FIG. 11 i) CD8+ T cells were negatively isolated from normal donor buffy coats obtained from National Blood Service UK or patient samples from the Department of Haematology, Southampton General Hospital following informed consent using EasySep isolation kits. […] Excess culture medium was removed before slides were analysed on the ProScanArray (PerkinElmer). […] Negatively isolated CD8+ T cells were labelled with CD8-FITC (FL1-H) and pMHC-SAPE (FL2-H) and analysed by flow cytometry using the FACScalibur™. […]
FIG. 12: Analysis of patient samples. […] Positives were only scored where at least 3 of 9 spots had T cells stuck to them and this occurred in both sets of spots in independent locations on the array. […]
In short, pMHC molecules were folded into tetramers using streptavidin alone or streptavidin conjugated to AlexaFluor 532 (Molecular Probes). […] Excess culture medium was removed before slides were analysed on the ProScanArray (PerkinElmer). […]

[8] = system: HHD mice; assay: Mouse IFNγ-ELISpot after pDOM-epitope DNA vaccination
Method: HHD mice at 6 to 10 weeks of age were injected intramuscularly (i.m.) into both quadriceps with a total of 50 μg DNA in saline solution on day 0. Unless stated otherwise mice were boosted with the same DNA vaccine delivered with in vivo electroporation on day 28 as previously described^5.
Vaccine-specific IFNγ secretion by lymphocytes from individual mice was assessed ex vivo (BD ELISpot Set, BD PharMingen, San Diego, Calif.) on day 14 or 36, as described previously with some modifications^11. Briefly, viable lymphocytes were selected from splenocyte preparations by density centrifugation. […] Data are expressed as the frequency of spot-forming cells (SFCs) per million lymphocytes. For analysis of peptide-specific T-cell sensitivity, splenic lymphocytes from immunized mice were incubated with a range of PASD1 peptide concentrations and the frequency of specific cells assessed by ELISpot analysis as described. The number of SFC/million cells at the peptide concentration inducing the greatest response was assigned a value of 100%. For each peptide concentration tested the % maximal response was then calculated by the formula: (experimental SFCs per million cells/maximal SFCs per million cells)×100% for each individual animal.

[9] = system: peptide loaded targets; type: cell-based
[10] = prostate cancer patient, up to four stimulations

Substance	Secretion of IFNγ in cultures of CD4+ depleted effector cells [1]	IFNγ production from normal donor T cells [1]	Pentamer positive T cells [3]	Pentamer positive cells, frequency of the CD8+ cells ([4]; AML patients) [%]	Pentamer positive cells, frequency of CD8+ cells ([5]; head and neck patient)	Pentamer positive cells, frequency of the CD8+ population ([5]; head and neck patient)	Pentamer positive cells [5, 10]	Specific IFNγ secretion by ELISpot [6]	IFNγ responses following stimulation with autologous DCs loaded with wild type peptide [1]	Killing of peptide loaded targets (CTL assay) [9]	other results
P14: modified PASD1 peptide, SEQ ID NO 21, derivative of wild type peptide P8 (RLWQELSDI; Synthetic sequence amino acid sequence p14)	almost completely abolished	highest levels	small population	0.02	0.02%	not expanded	No pentamer positive cells were detected	detectable			Phenotype of the IFNγ secreting cells [2]: IFNγ secreting cells were CD8+; Pentamer positive cells ([4]; AML Patient 3 (remission) and Patient 4 (non remission), after three stimulations): no pentamer positive cells were detected; P14 pentamer positive cells of the CD8+ cells ([4]; AML Patient I): 0.5%; P14 pentamer positive cells of the CD8+ cells ([4]; AML Patient II): 0.09%; Pentamer positive cells, frequency of the CD8+ T cells ([4]; AML patients, absence of peptide stimulation): not detectable above background levels; also recorded: undetectable; P14 pentamer positive cells, frequency of the CD8+ T cell population ([5]; colon cancer patient, fourth stimulation): 13.6%; P14 pentamer positive cells, frequency of CD8+ cells ([5]; colon cancer patient, stimulation with DCs alone, corrected for control pentamer): 0.09%; P14 pentamer positive cells, frequency of CD8+ T cells ([5]; colon cancer patient, three rounds of P14 peptide stimulation): 0.11%; IFNγ secretion by expanded P14-specific T cell populations ([6]; AML Patient I and II): IFNγ was secreted; HLA-A2 positive ALL and CML patients with P14-specific T cells ([7]; 1 ALL and 1 CML HLA-A2 positive patient): neither; HLA-A2 positive AML patients with P14 specific T cells on the pMHC array ([7]; at presentation, no prior ex vivo stimulation): two of four; IFNγ secretion (ELISpot) against the peptide of the immunisation ([8]; mouse, in vivo): leads to an IFNγ response
P9: wild type PASD1 nonamer, SEQ ID NO. 11 (KLQERKKWQ; listed as Homo sapiens)									generated some IFNγ responses		
P8: wild type PASD1 peptide, SEQ ID NO. 9, PASD1 691-699 (RLWQELSDS; listed as Homo sapiens)									generated some IFNγ responses		IFNγ secretion (ELISpot) against the peptide of the immunisation ([8]; HHD mice, prime only, 14 days later): does not
P15: PASD1 peptide analogue with a single amino acid change, PASD1 587-595 (LINPRDVSV)	almost completely abolished	highest levels	small population	0.02	same low frequency	0.06%	No pentamer positive cells were detected	not		did not occur	Pentamer positive cells ([5]; head and neck patient, fourth stimulation): did not expand this further
P16: PASD1 peptide analogue with a single amino acid change, PASD1 587-595 (LVNPRDVSV)	almost completely abolished	highest levels								did not occur	
P4: wild type PASD1 nonamer, SEQ ID NO. 1 (LQNPRDVSV; listed as Homo sapiens)									generated some IFNγ responses		
